Measurements reported in ChEMBL document CHEMBL1201862, “PubChem BioAssay data set” (2004).
The source made the active and inactive calls.

Assays:
[1] = target: T1, Protein skinhead-1 (Caenorhabditis elegans, UniProt P34707); assay type: functional
T1 sequence (P34707 whole entry): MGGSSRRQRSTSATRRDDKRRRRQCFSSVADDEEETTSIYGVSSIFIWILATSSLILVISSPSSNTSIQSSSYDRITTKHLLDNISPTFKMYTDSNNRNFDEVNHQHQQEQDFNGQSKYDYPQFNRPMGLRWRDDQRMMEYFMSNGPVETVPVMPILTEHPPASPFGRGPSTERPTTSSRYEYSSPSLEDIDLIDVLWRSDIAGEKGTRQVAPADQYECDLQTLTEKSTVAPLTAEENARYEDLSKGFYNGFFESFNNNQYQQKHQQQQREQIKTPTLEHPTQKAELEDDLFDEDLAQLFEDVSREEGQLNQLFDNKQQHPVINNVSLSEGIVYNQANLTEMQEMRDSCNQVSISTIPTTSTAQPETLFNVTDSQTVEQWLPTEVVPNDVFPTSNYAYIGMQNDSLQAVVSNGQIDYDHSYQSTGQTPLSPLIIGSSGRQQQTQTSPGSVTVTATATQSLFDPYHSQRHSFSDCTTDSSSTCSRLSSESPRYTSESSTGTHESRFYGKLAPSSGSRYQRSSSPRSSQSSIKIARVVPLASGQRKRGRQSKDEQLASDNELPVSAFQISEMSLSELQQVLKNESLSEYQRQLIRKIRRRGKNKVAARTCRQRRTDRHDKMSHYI

[2] = system: INS1; assay: INS-1E survival protection against cytokine death – cell-based, luminescence, retest, dose response (AID 449756); assay type: functional; details: Rattus norvegicus;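 further: cell death triggered by IL-1 beta plus TNF-alpha plus IFN-gamma mixture; protective hits raise ATP signal compared with cytokine alone wells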
[3] = reduction of Shn3 3'UTR-driven luciferase in osteoblasts – cell-based, Clone20 osteoblasts, firefly luciferase, cherry-picked, dose response (AID 624132); assay type: functional;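 further: firefly luciferase luminescence from reporter carrying the Shn3 3'UTR in osteoblasts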
[4] = loss of viability in HepG2 cells – cell-based, CellTiter-Glo, cherry-picked, cytotoxicity control for Shn3 inhibitor project, dose response (AID 624134); assay type: functional
[5] = target: FAD-linked sulfhydryl oxidase ALR (Homo sapiens, UniProt P55789); assay: ALR-catalysed DTT oxidation blockers – biochemical, H2O2 detection, luminescence, cherry-pick, dose response (AID 493248)
Chain of FAD-linked sulfhydryl oxidase ALR (P55789 whole entry): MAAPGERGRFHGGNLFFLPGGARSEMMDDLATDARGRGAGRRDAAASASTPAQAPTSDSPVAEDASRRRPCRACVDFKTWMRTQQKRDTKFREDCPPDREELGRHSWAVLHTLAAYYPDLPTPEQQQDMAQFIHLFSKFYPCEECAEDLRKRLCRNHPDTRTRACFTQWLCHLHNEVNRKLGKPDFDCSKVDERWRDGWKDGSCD

[6] = Luminescence Cell-Based Dose Retest to Confirm Inhibitors of Cancer Stem Cells. [Related pubchem assays (depositor defined):AID2717, AID2721]; assay type: functional; details: Homo sapiens
[7] = system: Streptococcus sp. 'group A'; assay: Streptococcus pyogenes SK(-)GAS viability under kanamycin – luminescence, BacTiterGlo, confirmation, counter-screen for streptokinase expression inhibitor project, dose response (AID 1900); assay type: functional, organism-based
[8] = target: T2, Streptokinase A (Streptococcus pyogenes serotype M1, UniProt P10520); assay: viability-normalized secreted streptokinase activity reduction – plasminogen activation absorbance, OD405, dose response (AID 1914); assay type: functional, Streptococcus pyogenes M1 GAS;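 further: secreted streptokinase activity via plasminogen activation per viability signal from cell pellet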
T2 sequence (P10520 whole entry): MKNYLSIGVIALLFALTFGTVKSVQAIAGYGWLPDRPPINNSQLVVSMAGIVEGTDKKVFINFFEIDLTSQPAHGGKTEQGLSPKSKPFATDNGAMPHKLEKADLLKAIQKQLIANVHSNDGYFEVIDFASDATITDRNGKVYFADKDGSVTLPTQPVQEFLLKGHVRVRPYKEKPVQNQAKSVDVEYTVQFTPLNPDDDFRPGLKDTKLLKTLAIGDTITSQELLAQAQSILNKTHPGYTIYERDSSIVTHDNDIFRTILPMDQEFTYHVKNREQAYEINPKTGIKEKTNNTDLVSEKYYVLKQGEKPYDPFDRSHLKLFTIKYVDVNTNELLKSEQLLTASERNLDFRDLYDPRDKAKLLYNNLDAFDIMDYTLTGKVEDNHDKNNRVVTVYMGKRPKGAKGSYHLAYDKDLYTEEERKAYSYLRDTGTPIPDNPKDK

[9] = system: Streptococcus; assay: GAS UMAA2166 growth inhibition – luminescence, BacTiterGlo, counter-screen for streptokinase expression inhibitor project, dose response (AID 1915); assay type: functional, organism-based;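 further: potency for reduction of bacterial viability or growth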
[10] = NIH3T3 cell viability loss – ATP luminescence, mouse fibroblasts, counter-screen, dose response (AID 2010); assay type: functional, cell-based;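 further: cells exposed to compound for about 90 hours before reading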
[11] = Trypanosoma cruzi growth suppression in host cells – NIH3T3 host cells, beta-gal luminescence, confirmation (AID 2044); assay type: functional, cell-based;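 further: intracellular parasites grown in NIH/3T3 mouse fibroblasts as host cells; luminescent beta-galactosidase reporter signal from transgenic T. cruzi replicating inside host cells; inhibitors lower the luminescence signal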
[12] = microbe, parasite or virus in culture; assay type: functional; details: Mycobacterium tuberculosis
[13] = target: Luciferin 4-monooxygenase (Photinus pyralis, UniProt P08659); assay: inhibition of purified Photinus pyralis luciferase – biochemical, luminescence, dose response (AID 1891)
Chain of Luciferin 4-monooxygenase (P08659 whole entry): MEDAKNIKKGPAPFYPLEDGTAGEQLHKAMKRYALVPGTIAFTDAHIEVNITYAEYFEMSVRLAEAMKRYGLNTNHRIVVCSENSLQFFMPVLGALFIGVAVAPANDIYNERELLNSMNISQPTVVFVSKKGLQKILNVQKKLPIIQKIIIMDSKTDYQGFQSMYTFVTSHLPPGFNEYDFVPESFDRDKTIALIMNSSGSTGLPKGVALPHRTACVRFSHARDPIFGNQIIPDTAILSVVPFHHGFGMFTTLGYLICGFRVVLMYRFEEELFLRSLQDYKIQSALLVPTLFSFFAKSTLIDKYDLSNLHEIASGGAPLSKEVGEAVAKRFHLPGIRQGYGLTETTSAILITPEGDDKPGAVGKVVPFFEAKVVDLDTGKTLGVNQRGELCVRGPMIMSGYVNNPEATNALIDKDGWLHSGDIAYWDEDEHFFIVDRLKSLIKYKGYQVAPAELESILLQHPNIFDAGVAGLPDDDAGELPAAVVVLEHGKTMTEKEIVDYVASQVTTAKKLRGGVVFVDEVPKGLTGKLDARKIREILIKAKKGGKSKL

[14] = Luminescence Cell-Based Dose Confirmation HTS to Identify Inhibitors of Platelet Dense Granule Release. [Related pubchem assays: 1663 (Primary HTS), 1678 (Summary of Project)]; assay type: functional
[15] = target: Cytochrome P450 2C19 (Homo sapiens, UniProt P33261); assay: Cytochrome panel assay with activity outcomes. Panel member name: p450-cyp2c19 Compounds with AC50 equal or less than 10 uM are considered active; assay type: functional; details: read-out: AC50
Chain of Cytochrome P450 2C19 (P33261 whole entry): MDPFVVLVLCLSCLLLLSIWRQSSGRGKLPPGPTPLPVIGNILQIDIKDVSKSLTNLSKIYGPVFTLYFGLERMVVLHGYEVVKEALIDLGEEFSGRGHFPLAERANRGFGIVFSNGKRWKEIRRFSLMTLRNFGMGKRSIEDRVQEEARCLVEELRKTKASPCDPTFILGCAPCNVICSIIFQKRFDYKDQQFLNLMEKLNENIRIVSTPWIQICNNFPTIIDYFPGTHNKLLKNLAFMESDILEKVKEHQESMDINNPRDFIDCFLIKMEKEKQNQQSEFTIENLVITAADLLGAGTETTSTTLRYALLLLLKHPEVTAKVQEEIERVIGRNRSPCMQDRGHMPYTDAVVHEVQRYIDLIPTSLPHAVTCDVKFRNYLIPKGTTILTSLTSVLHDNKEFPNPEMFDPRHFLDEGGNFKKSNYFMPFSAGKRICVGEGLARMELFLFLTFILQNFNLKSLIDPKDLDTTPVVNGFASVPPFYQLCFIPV

[16] = system: H4; assay: Luminescence Cell-Based Dose Response HTS to Identify Activators of 5'UTR Stem-Loop Driven Prion Protein mRNA Translation in H4 Neuroglioblastoma Cells. [Related pubchem assays: 1829 (Project Summary), 1814 (Primary HTS)]; assay type: functional; details: Homo sapiens
[17] = Luminescence Cell-Based Dose Confirmation HTS to Identify Activators of 5'UTR Stem-Loop Driven Alpha-Synuclein mRNA Translation in H4 Neuroglioblastoma Cells. [Related pubchem assays: 1829 (Project Summary), 1814 (Primary HTS)]; assay type: functional

**Q.** Which IC50 [1] does the source give for CN(C)c1ccc(/C=C/c2ccc3ccccc3n2)cc1 here?
**A.** Its IC50 is > 100 µM (inactive).

**Q.** What about the AC50 [2] of the same compound?
**A.** Its AC50 is 3.17 µM (active).

**Q.** And the AC50 [3]?
**A.** Its AC50 is 1.33 µM (active).

**Q.** And the AC50 [4]?
**A.** The AC50 was 15.9 µM (active).

**Q.** For CC1CN(S(=O)(=O)c2cccc(C(=O)OCC(=O)Nc3ccc4c(c3)OCO4)c2)CC(C)O1 (centres undefined), which IC50 [1] is on record?
**A.** The IC50 was > 100 µM (inactive).

**Q.** With O=C(Nc1nccs1)c1ccc(-c2ccc(F)cc2)o1 as the compound, how does the IC50 [1] read?
**A.** The IC50 was > 100 µM (inactive).

**Q.** Which AC50 [5] does the source give for COc1ccc2[nH]c(C)c(-c3csc(N)n3)c2c1 here?
**A.** The AC50 was 5.23 µM (active).

**Q.** For CCOC(=O)c1c(C)cc(C)n2c1nc1ccccc12, which IC50 [1] is on record?
**A.** Its IC50 is > 100 µM (inactive).

**Q.** For O=[N+]([O-])c1cccnc1N1CCC(c2cc(-c3ccc(Cl)cc3Cl)[nH]n2)CC1, which AC50 [6] is on record?
**A.** Its AC50 is 4.74 µM (active).

**Q.** And the EC50 [7]?
**A.** The EC50 was 2.31 µM (active).

**Q.** And the EC50 [8]?
**A.** Its EC50 is 4.61 µM (active).

**Q.** And the EC50 [9]?
**A.** Its EC50 is 13.4 µM (active).

**Q.** With O=C(COC(=O)c1c2c(nc3ccccc13)/C(=C\c1cccs1)CCC2)Nc1ccccc1 as the compound, how does the AC50 [6] read?
**A.** Its AC50 is 1.54 µM (active).

**Q.** What about the EC50 [10] of the same compound?
**A.** Its EC50 is > 60 µM (inconclusive).

**Q.** What about the EC50 [11] of the same compound?
**A.** The EC50 was 1.9 µM (active).

**Q.** For Cc1cc(C)c2oc(-c3ccc(C)c(NC(=S)NC(=O)/C=C/c4ccco4)c3)nc2c1, which CC50 [12] is on record?
**A.** Its CC50 is > 40 µM (active).

**Q.** For CCN(CC)CCOC(=O)c1ccc(NC(=O)CCCN2C(=O)/C(=C\c3cccs3)SC2=S)cc1, which IC50 [1] is on record?
**A.** The IC50 was > 100 µM (inactive).

**Q.** Which EC50 [13] does the source give for Cc1onc(-c2ccccc2Cl)c1C(=O)Nc1ccc(Br)cc1 here?
**A.** Its EC50 is > 112 µM (not active).

**Q.** What about the EC50 [14] of the same compound?
**A.** Its EC50 is > 112 µM (not active).

**Q.** For CCCCCNCC(=O)Nc1cccc(C(=O)Nc2cccc(C(F)(F)F)c2)c1, which AC50 [6] is on record?
**A.** The AC50 was 9.98 µM (active).

**Q.** With COC(=O)c1sc(NC(=O)c2ccc(C)o2)nc1C as the compound, how does the EC50 [13] read?
**A.** Its EC50 is 5.6 µM (active).

**Q.** And the EC50 [14]?
**A.** Its EC50 is > 112 µM (not active).

**Q.** Which results are given for N#Cc1c2n(c3c(S)ncnc13)CCCCC2?
**A.** AC50 [15]: 25.1 µM (inconclusive); AC50 [5]: 1.65 µM (active)

**Q.** For CCOC(=O)c1c(-c2cccs2)csc1NC(=O)CN1CC(C)OC(C)C1 (centres undefined), which IC50 [1] is on record?
**A.** The IC50 was > 100 µM (inactive).

**Q.** Which AC50 [5] does the source give for Cc1ccc(-c2ccc(CCC(=O)O)n2NC(=O)c2cccs2)cc1 here?
**A.** Its AC50 is 8.15 µM (active).

**Q.** For O=C(C[C@@H]1C/C=C\C[C@H](NC(=O)OCC2c3ccccc3-c3ccccc32)C(=O)OC[C@H]2CCCN2C1=O)N[C@@H](CO)Cc1ccccc1, which CC50 [12] is on record?
**A.** Its CC50 is > 40 µM (active).

**Q.** Which IC50 [1] does the source give for N#C/C(=C\c1ccco1)c1nc2ccccc2s1 here?
**A.** The IC50 was > 100 µM (inactive).

**Q.** Which results are given for O=c1oc(-c2ccc([N+](=O)[O-])cc2)nc2ccc(O)cc12?
**A.** EC50 [13]: 0.995 µM (active); EC50 [14]: 1.72 µM (active)

**Q.** With O=c1c2ccccc2nnn1Cc1ccc(Br)cc1 as the compound, how does the IC50 [1] read?
**A.** Its IC50 is 87.8 µM (inactive).

**Q.** With Cc1ccc(S(=O)(=O)c2cc3ccccc3oc2=O)cc1 as the compound, how does the EC50 [16] read?
**A.** The EC50 was > 120 µM (not active).

**Q.** What about the EC50 [17] of the same compound?
**A.** Its EC50 is > 120 µM (not active).

**Q.** For CCOc1ccc(C2c3[nH]c4ccccc4c3C[C@H]3C(=O)N(C4CCN(Cc5ccccc5)CC4)CC(=O)N23)cc1OC (some centres undefined), which CC50 [12] is on record?
**A.** The CC50 was 38.9 µM (active).
